These results are taken from US20240285616A1, “THERAPEUTIC TREATMENT OF CHROMATINOPATHIES” (UNIVERSITA' DEGLI STUDI DI TRENTO, priority 2020, published 2024).

Where two headings read alike, the source gives them in different places.

Series [1] has as its system MLL4^Q4092X MSCs. The series can be described thus: Nuclear to cytosolic localization of YAP/TAZ by immunofluorescence. Conditions: sparse condition. The series is classed as cell-based, human. Here is the method:
Cell lines used in this study include NIH 3T3 (ATCC), HEK293T (ATCC), human primary fibroblasts derived from either healthy of Kabuki patients (Genomic and Genetic Disorders Biobank) and hTERT-immortalized human adipose-derived MSCs. Primary fibroblasts, NIH3T3 and HEK293T were maintained at 37° C. and 5% CO2 in DMEM medium supplemented with 10% Fetal Bovine Serum (Euroclone #ECS0180L), while MSCs were cultured in 1:1 DMEM/F-12 medium (Gibco #11320-074) supplemented with 10% Fetal Bovine Serum (Euroclone #ECS0180L).
For immunofluorescence assays, cells were seeded on coverslips coated with 0.1% gelatin (Sigma Aldrich #G1393). When needed, cells where fixed with 4% paraformaldeide for minutes at 4° C. […]
To quantify the nuclear to cytosolic localization of YAP-TAZ, the inventors adapted previously published MATLAB routines (Zambrano et al., 2016). […]
To estimate the average cytosolic intensity per cell, a ring of 30 pixels width (approximately 7 microns) around each segmented nuclei was found. […] The inventors then calculated for each cell the Nuclear to Cytosolic Intensity (NCI) as the ratio of the background corrected nuclear and cytosolic average YAP-TAZ intensity.

In series [2] the test system is MLL4^Q4092X MSCs. In words: DNA damage response in MSCs after ATR inhibition (immunofluorescence). To be noted: MLL4^Q4092X MSCs treated with ATR inhibitor. The series is classed as cell-based, human. Here is the method: (§1) For immunofluorescence assays, cells were seeded on coverslips coated with 0.1% gelatin (Sigma Aldrich #G1393). When needed, cells where fixed with 4% paraformaldeide for […] at 4° C. Coverslips were processed as described: permeabilization and blocking with PBS/1% BSA/5% goat serum/0.5% Triton X-100 (blocking solution) for 1 hour at room temperature, followed by incubation with primary antibody (diluted in the blocking solution) for 2 hours at RT (or overnight at 4° C., depending on the used primary antibody), 3-5 washes in PBS and incubation with secondary antibodies (diluted in the blocking solution), DRAQ5 for nuclear staining and phalloidin-TRITC for 1 h at room temperature. Images were acquired using a Leica TCS SP5 confocal microscope with HCX PL APO 63×/1.40 objective. Confocal z stacks were acquired with sections of 0.5 μm. In cases where image analysis was performed, image acquisition settings were kept constant.

Series [3] relates to MLL4^Q4092X MSCs. In words: Gene expression profiling (RNA-seq) of MSCs after VE-822 treatment. The series is classed as cell-based, human. To be noted: 8 and 24 hours after ATR inhibition. Here is the method: WT and MLL^4Q4092X MSCs were seeded as sparse (5000 cells/cm^2) condition and collected 48 h after plating, either untreated or at 8 and 24 hours after ATR inhibition (VE-822 treatment) (medchem express #HY-13902/cs-1861). Cells were directly lysed on plates with TRIzol (Thermo Fisher cat. #15596026), and total RNAs were extracted according to the manufacturer's instructions.
Contaminating genomic DNA was removed by DNase (Qiagen 843 cat. #79254) digestion. RNA quality and concentration were assessed using the 2100 Bioanalyzer (Agilent cat. #G2939BA) and the Qubit fluorometer (Thermo Fisher cat. #Q33226), respectively. 3′-RNA-seq libraries were prepared by using the QuantSeq 3′ mRNA-Seq Library Prep Kit FWD for Illumina (Lexogen cat. #015.24) and starting from 500 ng of total RNA. Libraries were sequenced as single reads of 50 bp with the Illumina HiSeq2500. Three independent biological replicates were performed for each cell line and time point and sequenced as independent libraries.
Raw reads from fastq files were first checked for their quality using FastQC and trimmed using Trimmomatic (Bolger et al., 2014). Trimmed reads were aligned to the reference human genome assembly hg38/GRCh38 using STAR with default parameters. […] For annotation of the reads to the genome, HOMER was employed with the following command ‘analyzeRepeats.pl rna hg38-count 3utr-rpkm’. […]

The subject of series [4] is MLL4^Q4092X MSCs. In words: Chondrocyte micromass differentiation of MSCs (Alcian blue). The series is classed as cell-based, human. To be noted: in vitro. Here is the method: For chondrocyte micromass culture, a cell solution of 1.6× 10^7 viable cells/mL was produced. Micromass cultures were generated by seeding 5-μL droplets of cell solution. After cultivating micromass cultures for 2 hours under high humidity conditions, MSCs medium was added. The day after, the medium was changed with chondrogenesis medium (Gibco #A10069-01) supplemented with Stem-Pro Chondrogenesis supplement (Gibco #10064-01). For complete differentiation, cells were maintained in culture for three weeks changing media regularly.
To detect chondrogenesis, cells were washed with PBS and fixed in 4% formaldehyde for 1 hr at RT and then washed with PBS. Cells were incubated with Alcian blue solution (1 g/L in 0.1 M HCl, Sigma-Aldrich #B8438) for 6 hrs at room temperature and then extensively washed with PBS. To measure Alcian blue deposition, dry wells were incubated with 1 mL of 6 N Guanidine HCl for 1 hour and then the absorbance was measured with a spectofotometer measured between 600 and 650 nm.

For another series, the system named is Kmt2d morphants. The series is classed as in vivo. Conditions: Kmt2d morphant medaka embryos grown in 0.15 μM VE822. Here is the method:
(§2) The Cab-strain of wt medaka fish (Oryzias latipes) was maintained following standard conditions (i.e., 12 h/12 h dark/light conditions at 27° C.). Embryos were staged according to the method proposed by Iwamatsu. All studies on fish were conducted in strict accordance with the institutional guidelines for animal research and approved by the Italian Ministry of Health: Department of Public Health, Animal Health, Nutrition, and Food Safety.
(§3) The available medaka olKmt2d (ENSORLT00000009505.1) genomic sequences were retrieved from a public database (UCSC Genome Browser, http://genome.ucsc.edu/) from human KMT2D (NM_003482.3) transcript. A morpholino (Mo: Gene Tools LLC, Oregon, USA) was designed against the ATG initiation codon within the 5′ untranslated region of the medaka ortholog of the (MO-Kmt2d: 5′-[…]-3′) of the medaka orthologous of the KMT2D gene. The specificity and inhibitory efficiencies of morpholino was determined as previously described (Conte et al., 2015). MO-Kmt2d was injected at 0.015 mM concentration into one blastomere at the one/two-cell stage. Off-target effects of the morpholino injections were excluded by repeated experiments with control morpholino or by co-injection with a p53 morpholino. For the drug treatment, chorions from injected and control embryos were removed with the hatching enzyme at St32. […]

Series [5] deals with MLL4^Q4092X MSCs. In words: Nuclear morphology, chromatin compaction and Lamin A/C after HDAC inhibitor treatment. The series is classed as cell-based, human. Here is the method:
as §1
Confocal imaging data analyses were performed using Image J software. For 2D/3D analysis RDAQ5 DNA dye was used to identify the nucleus and define the ROI. Then the fluorescence intensity and physical parameters were determined. For the measure of volume and flatness the inventors performed a 3D analyses using the “3D plugin 596 suite”, an Image J plugin.

Series [6] has as its system MLL4^Q4092X MSCs. The series can be described thus: H3K27me3 level and PcG condensate clustering after HDAC inhibitor treatment. The series is classed as cell-based, human. Here is the method: as §1
In order to automatically detect and quantify PcG and TrxG complex proteins in fluorescence cell image z-stacks, the inventors developed an algorithm that implements a method derived from (Gregoretti et al., 2016) with variants and adaptations. The algorithm performs the 2D segmentation of cell nuclei and the detection of Protein Bodies (PBs) for each slice of the stack, followed by the 3D reconstruction and identification of nuclei and PBs. […]

A further series deals with olKmt2d. The series can be described thus: Kmt2d morpholino injection in medaka embryos (in vivo model for KS). Also on record: species or system Oryzias latipes. To be noted: MO-Kmt2d injected at 0.015 mM, of 1,600 injected embryos, later developmental stages. Here is the method: as §2, §3

`CNCc1ccc(-c2cc(-c3nc(-c4ccc(S(=O)(=O)C(C)C)cc4)cnc3N)on2)cc1` [VE-822, BERZOSERTIB]: the “YAP/TAZ nuclear localization (mechanical properties of MSCs)” value in the series with MLL4^Q4092X MSCs [1] is “restored YAP/TAZ nuclear localization”; in the series with MLL4^Q4092X MSCs [1] (listed as VX-970) it was “sufficient to restore the mechanical properties”. The DNA damage response result in the series on MLL4^Q4092X MSCs [2] was “without affecting DNA damage response”. The “expression of a subset of ATR responsive genes (architectural chromatin genes)” value with MLL4^Q4092X MSCs [3] is listed as “rescued”. For the same compound, the chondrogenic differentiation potential result with MLL4^Q4092X MSCs [4] (listed as ATR inhibitor) is recorded as “partially rescued”; with MLL4^Q4092X MSCs [4] (listed as VX-970) it was “sufficient to abolish the differentiation defects”. Moreover, the “chondrogenic and skeleton defects, head morphogenesis” value in the series on Kmt2d morphants (listed as ATR inhibitor) is “sufficient to restore the chondrogenic and skeleton defects”; in the series on Kmt2d morphants (listed as VX-970), “sufficient to completely recover the chondrogenic and osteogenic defects”.
As to `CC(/C=C/C(=O)NO)=C\[C@@H](C)C(=O)c1ccc(N(C)C)cc1` [TSA], in the series with MLL4^Q4092X MSCs [5], the “chromatin organization and nuclear architecture” value was “rescued the altered chromatin organization and nuclear architecture”; the “nuclear morphology and structure (relative abundance of Lamin A/C)” value was “sufficient to re-establish proper nuclear morphology and structure”. In addition, in the series on MLL4^Q4092X MSCs [6], the H3K27me3 level result was “reduced” and the “clustering of PcG condensates” value was “reduced”.
As for “MO-Kmt2d: morpholino against the ATG initiation codon of medaka Kmt2d, 5′-CCCTGCTGCTGCTTTGATCTTTTTG-3′ (all phosphorodiamidate morpholino (PMO))”, the “embryos with morphological cranio-facial anomalies” value with olKmt2d was found to be 73±5%.
